Experimental findings from patent US12410323B2, “Potent antifouling agents albofungins target multiple fouling organisms” (The Hong Kong University of Science and Technology, priority 2021, dated 2025) are described below.

By LC50 is commonly meant the concentration lethal to half of the exposed cells or organisms. Read a high LC50 as a less lethal substance. The term EC50 denotes the concentration giving half of the maximal effect. Read a high EC50 as lower potency in that assay.

One data set concerns MRSA ATCC 43300. Description: Biofilm inhibition assay (MTT), pathogenic bacteria. The class given is cell-based, Staphylococcus aureus. Conditions: lowest concentration inhibiting 90% of biofilm formation. The protocol: (§1) The ability of the bacteria to form static biofilms was tested. Marine bacteria were cultured overnight in marine broth at 22° C. with 220 rpm agitation (Pseudomonas pachastrellae MCCC 1A01390, Sulfitobacter pontiacus MCCC 1A04899 and Psychrobacter nivimaris MCCC 1A 11723) and at 30° C. (Staphylococcus aureus B04, Staphylococcus sp. Z01 and Micrococcus sp. Z02) and then diluted to 10^7 CFU mL^−1 in marine broth supplemented with 1% of glucose; pathogenic bacteria was cultured overnight in LB broth with 1% glucose with 220 rpm at 37° C. Afterwards, 200 μL of the diluted solution were added to each well of a 96-well plate (Corning Inc., New York, USA) and was then incubated at 22° C. or 30° C. for 24 h. The culture medium, planktonic cells and loosely adhered bacteria were removed by dual washing with a phosphate-buffered saline (PBS) buffer, and the firmly attached bacteria were incubated with 20 μL of MTT (5 mg mL^−1) at 37° C. for 3 h. The supernatant was discarded, and formazan was dissolved in 150 μL of DMSO. Absorbance was measured using the Multiskan™ FC microplate photometer (Thermo Fisher Scientific, Waltham, USA) under 570 nm, and MRSA ATCC 43300 was used as a positive control. All the experiments were performed in triplicate.
The antibacterial activities of albofungins were tested following specific protocols (She et al., 2020). Marine broth was used as the test medium for the marine bacteria, and the MHB broth was used as the test medium for the pathogenic bacteria. The plate was kept at 22° C. or 30° C. overnight, and the minimum inhibitory concentration (MIC) is the lowest concentration that the drug prevents the visible growth of bacteria. The bacteria which have successfully formed biofilms were further used for antibiofilm formation assays. Different concentrations of albofungin compounds were added to each well. Biofilm formation was assessed through the MTT assay as previously described. […] Data were analyzed using one-way ANOVA to detect significant differences and standard deviation (SD) was calculated using GraphPad Prism 9. […]

A further data set deals with Escherichia coli k12. The description is as above. Format: cell-based. Conditions: lowest concentration inhibiting 90% of biofilm formation. The procedure: as §1
(§2) The antibacterial activities of albofungins were tested following specific protocols (She et al., 2020). Marine broth was used as the test medium for the marine bacteria, and the MHB broth was used as the test medium for the pathogenic bacteria. The plate was kept at 22° C. or 30° C. overnight, and the minimum inhibitory concentration (MIC) is the lowest concentration that the drug prevents the visible growth of bacteria. The bacteria which have successfully formed biofilms were further used for antibiofilm formation assays. Different concentrations of albofungin compounds were added to each well. Biofilm formation was assessed through the MTT assay as previously described. […] Data were analyzed using one-way ANOVA to detect significant differences and standard deviation (SD) was calculated using GraphPad Prism 9. All the assays were performed in triplicate.

Data set [1] relates to Acinetobacter baumannii B-65371. The description is as above. Conditions: lowest concentration inhibiting 90% of biofilm formation. The class given is cell-based. The protocol: as §1, §2
Data set [2] deals with Enterobacter cloacae NRRL-B-425. The data set is described as above. Format: cell-based. Conditions: lowest concentration inhibiting 90% of biofilm formation. The protocol: as §1, §2
The nature of data set [3]: Anti-larval settlement bioassay, bryozoan. Conditions: Bugula neritina (bryozoan), larvae, in vivo; larval mortality, 3 h. Format: in vivo, Bugula neritina. The protocol:
(§3) A. amphitrite adults were collected from Pak Sha Wan Pier, Hong Kong (22° 38′N, 114° 28′E) and after keeping in the dark for 24 h, a light source was used to stimulate the larval release. Within 1 h, the larvae were collected and cultured in 0.22 μm filtered seawater with a daily diet of Chaetoceros gracilis Schutt at 1×10^6 cells mL^−1 until their growth into cyprids, which were used for the anti-larval settlement bioassay. The bryozoan B. neritina adults were collected from a fish farm in Pak Shek Kok, Hong Kong (22° 43′N, 114° 20′E) and kept in flow-through seawater for no more than 7 days before use. The larvae were released within 30 minutes before the bioassay as described (Xu et al., 2010). The bioassay was conducted in a 24-well polystyrene tissue culture plate with 15-20 larvae in each well. 0.1% of DMSO in filtered seawater (FSW), and 0.625, 1.25, 2.5, 5, 10, 20, and 40 μg mL^−1 albofungin concentrations were tested in triplicate. In each well, 1 mL of FSW containing 15-20 larvae and 1 mL of albofungin solution of different concentrations. The plate was kept for 48 h at 25° C. (bryozoan B. neritina larvae were kept for 3 h). The wells with 0.1% of DMSO in FSW served as a negative control, and butenolide was used as a positive control. The number of attached, swimming, and dead larvae were counted under an Olympus optical microscope (Olympus Corporation, Tokyo, Japan). The settlement rate was calculated as the ratio of settled larvae to the total number of larvae in each well, and the death rate was calculated as the ratio of dead or missing larvae to the total number of larvae in each well. Half maximal effective concentration (EC50) and half lethal concentration (LC50) were determined for each compound, and the ratio of LC50/EC50 was used to evaluate the toxicity of the antifoulant. Experiments were performed in triplicate. Data were analyzed by one-way ANOVA to detect significant differences in the larval settlement, and SD was calculated by GraphPad Prism 9.

For data set [4], the system named is bryozoan Bugula neritina larvae. Description: Anti-larval settlement bioassay, bryozoan. The class given is in vivo. The procedure: as §3
Data set [5] in a line: Anti-larval settlement bioassay, barnacle. Conditions: Amphibalanus amphitrite (barnacle), cyprid larvae, in vivo; larval mortality, 48 h at 25° C. Format: in vivo, Amphibalanus amphitrite. The protocol:
as §3

Data set [6] deals with barnacle Amphibalanus amphitrite larvae. Description: Anti-larval settlement bioassay, barnacle. Format: in vivo. The procedure:
as §3

Where [7] appears, read: ratio used to evaluate toxicity of the antifoulant.

Structures are written as SMILES. Converted amounts (≈) assume the structure as drawn.

As to `CO[C@@H]1CC[C@H](O)c2c1oc1c3c4c(c(O)c1c2=O)-c1c(cc2cc(C)n(N)c(=O)c2c1O)C[C@H]4OCO3` [Albofungin (1), albofungin], the MBIC90 is 0.01 to 0.03 µg/mL in the data set with MRSA ATCC 43300, 0.63 to 1.25 µg/mL in the data set on Escherichia coli k12, 0.06 to 0.13 µg/mL in data set [1] and 1.25 to 2.5 µg/mL in data set [2]. This compound gave an LC50 at 3 h in data set [3] of more than 100 µg/mL. In data set [4] (2.5 μg mL^−1, 3 h), the larval settlement was 44% (±9.0%). Also, the concentration giving a half-maximal response (EC50) in data set [4] (Bugula neritina, larval settlement, 3 h) amounted to 1.9 µg/mL (≈ 3.65 µM); in data set [6] (Amphibalanus amphitrite, 48 h), 1.6 µg/mL (≈ 3.07 µM). The lethal effects result in data set [4] (highest concentration tested) is listed as “no lethal effects”. The LC50/EC50 in data set [4] (setting [7]) worked out at 52.6; in data set [6] (setting [7]), 62.5. In data set [5], this compound came in with a median lethal concentration (LC50) at 48 h of more than 100 µg/mL. Besides, the larval settlement rate in data set [6] (2.5 μg mL^−1, 48 h) is listed as 33% (±5.3%). Also, the “antifouling activity against larval settlement compared with butenolide” value in data set [6] (according to the EC50 value) was “equivalent antifouling activity”. Further, the “settlement rate compared with control group (0.1% DMSO in FSW)” value in data set [6] (after 48 h of incubation) was “significantly lower”.
